ChEMBL document CHEMBL1201862, “PubChem BioAssay data set” (2004)
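Five compound concentrations were applied to cells in 96-well plates for 48 hours; endpoints were derived by simple linear interpolation of the resulting dose-response curve. At the GI50, growth is halved.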 Calls of active or inactive are those of the source. Cut-off read from the data, not from the text of the source: active = GI50 up to about 1.1 µM and inactive = higher. Where a SMILES comes first, the peptide text is derived from it. [ ]: non-standard residue; d: D form. The star is where a group is joined. Phe(4-NO2) = N[CH](Cc1ccc([N+](=O)[O-])cc1)C(=O)O; Boc = CC(C)(C)OC(=O)*; OtBu = CC(C)(C)O*

Columns and labels:
Experiment in all cases: NCI tumour cell line growth inhibition, 48 h
RPMI-8226 = system: RPMI-8226
M14 = system: M14
A549 = system: A549
SNB-19 = system: SNB-19
SN12C = system: SN12C
NCI-H522 = system: NCI-H522
NCI/ADR-RES = system: NCI/ADR-RES
DU-145 = system: DU-145
NCI-H23 = system: NCI-H23
HCT-15 = system: HCT-15
786-0 = system: 786-0
LOX IMVI = system: LOX IMVI
MDA-MB-435 = system: MDA-MB-435
UACC-257 = system: UACC-257
KM12 = system: KM12
OVCAR-4 = system: OVCAR-4
MDA-MB-231 = system: MDA-MB-231
CCRF-CEM = system: CCRF-CEM
HOP-62 = system: HOP-62
SK-MEL-2 = system: SK-MEL-2

| Structure (SMILES) | GI50 (RPMI-8226) | GI50 (M14) | GI50 (A549) | GI50 (SNB-19) | GI50 (SN12C) | GI50 (NCI-H522) | GI50 (NCI/ADR-RES) | GI50 (DU-145) | GI50 (NCI-H23) | GI50 (HCT-15) [µM] | GI50 (786-0) | GI50 (LOX IMVI) | GI50 (MDA-MB-435) | GI50 (UACC-257) | GI50 (KM12) | GI50 (OVCAR-4) | GI50 (MDA-MB-231) | GI50 (CCRF-CEM) | GI50 (HOP-62) | GI50 (SK-MEL-2) |
| --- | --- | --- | --- | --- | --- | --- | --- | --- | --- | --- | --- | --- | --- | --- | --- | --- | --- | --- | --- | --- |
| COC(=O)C(Cc1ccc([N+](=O)[O-])cc1)NC(=O)C(CC(=O)OC(C)(C)C)NC(=O)OC(C)(C)C (stereo not given) (Boc-Asp(OtBu)-[Phe(4-NO2)]-OMe; configuration not given here) | 40 µM (inactive) | 29.4 µM (inactive) | > 100 µM (inactive) | > 100 µM (inactive) | > 100 µM (inactive) | 63.5 µM (inactive) | > 100 µM (inactive) | > 100 µM (inactive) | > 100 µM (inactive) | > 100 | > 100 µM (inactive) | 20.9 µM (inactive) | > 100 µM (inactive) | > 100 µM (inactive) | > 100 µM (inactive) | 38.4 µM (inactive) | 25.8 µM (inactive) | > 100 µM (inactive) | > 100 µM (inactive) | > 100 µM (inactive) |
| COc1ccc2c(c1)-c1nc(=S)n(CCCN(C)C)c3ccc([N+](=O)[O-])c(c13)N2 | 0.693 µM (active) | 8.26 µM (inactive) | 0.363 µM (active) | 0.8 µM (active) | 0.582 µM (active) | 0.766 µM (active) | 1.25 µM (inactive) | 0.689 µM (active) | 1.08 µM (active) | 0.484 | 0.279 µM (active) | 0.53 µM (active) | 1.97 µM (inactive) | 1.22 µM (inactive) | 0.543 µM (active) | 1.13 µM (inactive) | 0.687 µM (active) | 0.205 µM (active) | 0.451 µM (active) | 14.7 µM (inactive) |
| COC(=O)C1CCC(=O)N1CN(C(C)=O)c1ccccc1 (stereo not given) | > 100 µM (inactive) | > 100 µM (inactive) | > 100 µM (inactive) | > 100 µM (inactive) | > 100 µM (inactive) | > 100 µM (inactive) | > 100 µM (inactive) | > 100 µM (inactive) | > 100 µM (inactive) | > 100 | > 100 µM (inactive) | > 100 µM (inactive) | > 100 µM (inactive) | > 100 µM (inactive) | > 100 µM (inactive) | > 100 µM (inactive) | > 100 µM (inactive) | > 100 µM (inactive) | > 100 µM (inactive) | > 100 µM (inactive) |
| Cn1c(O)c(C(=O)Nc2ccc([N+](=O)[O-])cc2)c(=O)n(C)c1=S | 3.15 µM (inactive) | 3.37 µM (inactive) | 3.42 µM (inactive) | 2.16 µM (inactive) | 3.13 µM (inactive) | 2.32 µM (inactive) | 2.79 µM (inactive) | 2.02 µM (inactive) | 1.42 µM (inactive) | 2.13 | 2.67 µM (inactive) | 2.69 µM (inactive) | 1.51 µM (inactive) | 2.32 µM (inactive) | 2.49 µM (inactive) | 2.71 µM (inactive) | 2.54 µM (inactive) | 2.38 µM (inactive) | 1.23 µM (inactive) | 1.82 µM (inactive) |
